Experimental data from patent publication US20080299123A1, “TREATMENT OF CHEMOTHERAPY- OR RADIOTHERAPY-RESISTANT TUMORS” (Deutsches Krebsforschungszentrum Stiftung des offentlichen …, priority 2006, published 2008).

What was measured:
Assay type in all cases: cell-based, human
[1] = tested on: L1CAM transfected PT45-P1 cells; assay: Caspase-3/-7 assay in L1CAM transfected PT45-P1 cells; details: inhibitor 10 μmol/L, 20 μg/mL etoposide 24 hours
Experimental: (§1) PT45-P1res cells (a,b) or PT45-P1 cells transfected with L1CAM or an empty control vector (mock) (c,d) were left untreated (w/o) or were either treated with Tapi-0, Tapi-1, GM6001 or L685,458 (each 10 μmol/L) for 24 hours. (a,c) Cellular lysates were subjected to western blotting using either the antibody clone UJ127 from Acris detecting only full-length L1CAM or the pcytL1 antibody detecting also the cytoplasmic part of L1CAM. HSP90 was detected as a control for equal protein load. (b,d) Thirty minutes after treatment with the respective inhibitor, cells were either left untreated or treated with 20 μg/mL etoposide for 24 hours. Then, cells were analysed for caspase-3/-7 activity expressed as n-fold induction of caspase-3/-7 activity of basal. Means±SD from three independent experiments are shown. * indicates p<0.05.
As described elsewhere (Sebens Müerköster et al., 2006), apoptosis was determined by staining with annexinV/propidium iodide (Biocarta, Hamburg, Germany) and subsequent fluorescence flow cytometry (GalaxyArgon Plus; DAKO Cytomation, Hamburg, Germany) using the FLOMAX software, and by the detection of caspase-3/-7 activity using a homogeneous luminescent assay (Promega, Mannheim, Germany). All samples were measured in duplicates.
For L1CAM transfection, PT45-P1 cells were seeded into 6 well plates (2×10^5 cells/well), were grown overnight, followed by transfection with 5 μL/well DIMRIE reagent (Invitrogen) and 0.6 μg/well of the following plasmids: pcDNA3.1 (mock) or pcDNA3.1-L1CAM (L1CAM). Upon transfection for 18 hours, 1 mL medium containing 20% FCS was added and cells were left untreated or were treated as indicated for further 24 hours. For knock down of L1CAM, PT45-P1res cells were seeded into 12 well plates (1×10^5 cells/well), were grown overnight followed by transfection with 12 μL/well RNAiFect reagent (Invitrogen) and 2 μg/well of either Stealth negative control siRNA (Invitrogen) or Stealth L1CAM siRNA (Invitrogen). After overnight transfection, cells were either left untreated or treated as indicated for further 24 hours.

L1CAM = L1CAM cleavage by western blotting in L1CAM transfected PT45-P1 cells; details: inhibitor 10 μmol/L, 24 hours
Experimental: as §1
Cells were seeded into 6 well and 12 well plates, respectively, and transfected or treated as indicated. Then, cells were washed once with PBS and lysed with 1 volume of 2×SDS sample buffer (128 mmol/L Tris-Base, 4.6% SDS, 10% glycerol). Samples were heated for 5 minutes at 95° C. and put on ice for 2 minutes. Protein concentrations were determined using the Dc Protein assay (BioRad). Ten μg of protein adjusted to an appropriate volume of SDS sample buffer containing 0.2 mg/mL bromphenolblue (Serva, Heidelberg, Germany) and 2.5% β-mercaptoethanol (Biomol, Hamburg, Germany) were submitted to electrophoresis on a 4-20% ProGel-Tris-glycin-gel (Anamed, Darmstadt, Germany) and immunoblotting was performed as described previously (Arlt et al, 2001). For detection of L1CAM, a monoclonal antibody (clone UJ127 from Acris Antibodies) was diluted at a concentration of 0.4 μg/mL in 5% nonfat milk powder and 0.05% Tween in TBS (blotto) and incubated overnight at 4° C. For detection of the cytoplasmic domain of L1CAM, the pcytL1 antibody (Mechtersheimer et al., 2001) was used at a concentration of 1 μg/mL in blotto and incubated overnight at 4° C. As control of equal protein load, a polyclonal rabbit antibody for HSP90 (Santa Cruz, Heidelberg, Germany) was diluted 1:2000 in blotto. The mouse anti CD51 antibody from Beckman Coulter GmbH (Krefeld, Germany) was used at a concentration of 1:500 in blotto for detection of human αv integrin. Incubation with the primary antibodies was performed overnight at 4° C. For detection of the primary antibodies, anti-mouse and anti-rabbit HRP-linked antibodies (Cell Signaling), respectively, were used at a dilution of 1:2000 in blotto-TBST at room temperature for 1 hour. After washing in TBST, blots were developed using the LumiGlo peroxidase detection kit (Cell Signaling).

ERK phosphorylation = ERK phosphorylation in SKOV3ip cells; details: treatment with DAPT, TAPI-0
Experimental: (A) Analysis of L1-32 cleavage by γ-secretase. Cells were treated for 48 h at 37° C. with presenilin inhibitor IX (DAPT) or for control with DMSO. Isolated membranes were incubated for 2 h at 37° C. and then separated into pellet or supernatant (SN) fractions by ultracentrifugation. Lanes 1 to 2 show cells treated with DMSO (vehicle). Lanes 3 and 4 show cells preincubated with DAPT. (B) SKOV3ip cells were treated with DAPT either in the presence or absence of the metalloprotease inhibitor TAPI-0 for 24 hr. Cells were lysed in BOG lysis buffer and analyzed by Western blot analysis. The cell supernatant was analyzed for soluble L1 using mAb L1-11A and the cell lysate was examined for L1-32 using peytL1. (C) HEK293 or HEK293-hL1wt cells were treated with DMSO, DAPT, TAPI-0 or both inhibitors for 96 h. mRNA was transcribed to cDNA and analyzed by qPCR for the genes CRABPII and cathepsin B. (D) Analysis of ERK phosphorylation in SKOV3ip cells after treatment with the indicated compounds.
(A) Effect of L1-antibodies on ERK phosphorylation in SKOV3ip cells. The cells were incubated for 24 hr at 37° C. with the indicated purified antibodies to L1 (10 μg/ml) or isotype control IgG. […] Soluble L1 in the supernant and L1-32 in the cell lysate were analyzed by Western blot. (C) mRNA was isolated from antibody treated SKOV3ip cells, transcribed to cDNA and analyzed by qPCR for the indicated genes. […]

## CC(C)C[C@H](CC(=O)NO)C(=O)N[C@@H](Cc1ccc2ccccc2c1)C(=O)N[C@@H](C)C(N)=O [TAPI-0]
[1]
  apoptosis inducing effect of etoposide (caspase-3/-7): nor affect the apoptosis inducing effect of etoposide
L1CAM
  expression of full-length L1CAM and level of the 32 kD fragment: did neither influence the expression of full-length L1CAM nor increased the level of the 32 kD fragment
ERK phosphorylation
  ERK activation in treated cells: did not interfere with ERK activation
